In experiment [1] the target is T1, Peroxisome proliferator-activated receptor alpha (Homo sapiens, UniProt Q07869).
T1 sequence (Q07869 whole entry): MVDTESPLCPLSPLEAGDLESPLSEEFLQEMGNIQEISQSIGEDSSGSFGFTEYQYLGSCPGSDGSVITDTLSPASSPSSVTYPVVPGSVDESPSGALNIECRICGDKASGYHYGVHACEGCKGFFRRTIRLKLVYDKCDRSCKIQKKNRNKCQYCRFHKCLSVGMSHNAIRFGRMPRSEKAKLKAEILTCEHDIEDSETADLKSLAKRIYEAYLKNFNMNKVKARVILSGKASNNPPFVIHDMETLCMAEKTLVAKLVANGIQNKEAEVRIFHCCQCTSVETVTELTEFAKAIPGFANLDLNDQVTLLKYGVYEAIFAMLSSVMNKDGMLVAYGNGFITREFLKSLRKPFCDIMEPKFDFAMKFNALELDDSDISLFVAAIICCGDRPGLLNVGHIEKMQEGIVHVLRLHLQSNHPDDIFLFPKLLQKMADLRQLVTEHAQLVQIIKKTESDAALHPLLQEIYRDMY
Briefly: Antagonist activity at PPARalpha (unknown origin) expressed in HEK293A cells assessed as inhibition of GW7647-induced transactivation after 16 to 18 hrs by luciferase reporter assay. The format is cell-based, HEK293-A.

Experiment [2] concerns the target T2, Peroxisome proliferator-activated receptor gamma (Homo sapiens) (UniProt P37231).
T2 sequence (whole entry): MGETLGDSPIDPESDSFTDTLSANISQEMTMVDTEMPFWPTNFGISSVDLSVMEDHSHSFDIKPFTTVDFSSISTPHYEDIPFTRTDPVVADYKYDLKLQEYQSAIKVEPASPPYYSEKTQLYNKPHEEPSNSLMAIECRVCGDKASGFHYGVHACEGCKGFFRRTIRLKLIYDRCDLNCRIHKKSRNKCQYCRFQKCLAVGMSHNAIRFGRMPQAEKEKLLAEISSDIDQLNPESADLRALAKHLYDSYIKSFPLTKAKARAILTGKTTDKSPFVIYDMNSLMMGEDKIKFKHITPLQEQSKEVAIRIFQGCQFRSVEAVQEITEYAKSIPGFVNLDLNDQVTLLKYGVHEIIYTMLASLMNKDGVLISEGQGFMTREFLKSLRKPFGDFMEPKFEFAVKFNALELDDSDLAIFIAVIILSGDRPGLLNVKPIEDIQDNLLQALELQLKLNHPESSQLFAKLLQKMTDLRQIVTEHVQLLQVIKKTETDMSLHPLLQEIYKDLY
Put plainly: Antagonist activity at PPARgamma (unknown origin) expressed in HEK293A cells after 16 to 18 hrs by luciferase reporter assay. Format: cell-based. The following applies: HEK293-A. (In general: In a reporter assay the amount or activity of a reporter protein is the signal.)

Experiment [3] has as its target T3, Peroxisome proliferator-activated receptor alpha (Homo sapiens) (UniProt Q07869).
T3 sequence (whole entry): T1 sequence (Q07869 whole entry)
Put plainly: Transactivation of PPARalpha (unknown origin) expressed in HEK293A cells at 150 uM after 16 to 18 hrs by luciferase reporter assay relative to control. Format: cell-based. Conditions: HEK293-A.

The target in experiment [4] is T4, Peroxisome proliferator-activated receptor delta (Homo sapiens) (UniProt Q03181).
T4 sequence (whole entry): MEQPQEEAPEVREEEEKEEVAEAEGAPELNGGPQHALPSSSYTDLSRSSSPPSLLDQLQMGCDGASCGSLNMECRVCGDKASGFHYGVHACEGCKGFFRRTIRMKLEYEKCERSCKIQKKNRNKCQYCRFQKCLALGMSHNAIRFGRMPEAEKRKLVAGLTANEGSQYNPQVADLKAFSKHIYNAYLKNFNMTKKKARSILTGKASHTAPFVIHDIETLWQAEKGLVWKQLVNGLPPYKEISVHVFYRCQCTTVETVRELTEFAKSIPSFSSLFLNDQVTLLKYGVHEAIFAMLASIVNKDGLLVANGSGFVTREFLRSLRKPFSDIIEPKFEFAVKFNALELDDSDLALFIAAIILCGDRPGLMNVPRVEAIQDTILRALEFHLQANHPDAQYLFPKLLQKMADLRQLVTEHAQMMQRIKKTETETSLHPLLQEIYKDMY
Put plainly: Transactivation of PPARdelta (unknown origin) expressed in HEK293A cells after 16 to 18 hrs by luciferase reporter assay. The format is cell-based. The following applies: HEK293-A.

Experiment [5] concerns the target T2, Peroxisome proliferator-activated receptor gamma (Homo sapiens). Briefly: Transactivation of PPARgamma (unknown origin) expressed in HEK293A cells at IC50 after 16 to 18 hrs by luciferase reporter assay. The following applies: HEK293-A. Format: cell-based.
Experiment [6] deals with T3, Peroxisome proliferator-activated receptor alpha (Homo sapiens). Put plainly: Transactivation of PPARalpha in human HepG2 cells assessed as increase in CPT1 mRNA expression at 150 uM after 48 hrs by RT-PCR method. The format is cell-based.
The target is the same in experiment [7]. Put plainly: Antagonist activity at PPARalpha in human HepG2 cells assessed as inhibition of GW7647-induced CPT1 mRNA expression at 150 uM after 48 hrs by RT-PCR method. Format: cell-based.

The structures appear in SMILES notation. Activity calls are given as the source filed them. The calls are words filed in the database; no cut-off is given here. Some results are limits rather than exact numbers.

The text below walks through data of ChEMBL document CHEMBL3779850, “Synthesis, in vitro evaluation, and molecular modeling investigation of benzenesulfonimide peroxisome proliferator-activated receptors α antagonists” (Eur J Med Chem, 2016).

One may read the IC50 as the point on the concentration scale where inhibition reaches its midpoint.

For the compound `CCCC(Sc1nc2cc(Cl)ccc2s1)C(=O)NS(=O)(=O)c1ccc(C)cc1` (stereo not given), the IC50 in experiment [1] amounted to 4.6 µM. Also, the inhibition result in experiment [2] is “Active”. For the same compound, the fold change (FC) in experiment [3] was below 0.01. The result in experiment [4] was inactive.
With `O=C(NS(=O)(=O)c1ccc(Cl)cc1)C(Sc1nc2cc(Cl)ccc2s1)c1ccccc1` (stereo not given), the fold change (FC) in experiment [3] was found to be 0.9. The outcome in experiment [4] was inactive. In addition, in experiment [5], the result was Active.
Take `O=C(NS(=O)(=O)c1ccc([N+](=O)[O-])cc1)C(Sc1nc2cc(Cl)ccc2s1)c1ccccc1` (stereo not given): the outcome in experiment [6] and in experiment [4] was inactive. The IC50 in experiment [1] was determined as 0.82 µM. Moreover, the inhibition entry in experiment [2] and in experiment [7] was “Active” throughout. For the same compound, the fold change (FC) in experiment [3] stood at 0.22.
As to `CCCC(Sc1nc2cc(Cl)ccc2s1)C(=O)NS(=O)(=O)c1ccc(Cl)cc1` (stereo not given), the IC50 in experiment [1] is 6.86 µM. In experiment [2], the inhibition entry was “Active”. The fold change (FC) in experiment [3] is 0.04. In experiment [4], the outcome was inactive.
Consider `CCCC(Sc1nc2cc(Cl)ccc2s1)C(=O)NS(=O)(=O)c1ccc([N+](=O)[O-])cc1` (stereo not given), for which the result in experiment [6] and in experiment [4] was inactive. In experiment [1], the 50% inhibitory concentration (IC50) was 0.85 µM. Also, the inhibition entry in experiment [2] and in experiment [7] was “Active” each time. The fold change (FC) in experiment [3] worked out at 0.03.
With `CCCC(Sc1nc2cc(Cl)ccc2s1)C(=O)NS(=O)(=O)c1ccc(NC(=O)c2ccccc2)cc1` (stereo not given), the IC50 in experiment [1] was found to be 4.5 µM. Moreover, the inhibition result in experiment [2] was “Active”. The fold change (FC) in experiment [3] was determined as 0.05. Moreover, the outcome in experiment [4] was inactive.
Regarding `CC(C)(Oc1ccc(CCNC(=O)c2ccc(Cl)cc2)cc1)C(=O)NS(=O)(=O)c1ccccc1`, in experiment [1], the IC50 turned out to be 0.8 µM. For the same compound, the fold change (FC) in experiment [3] is 0.28.
In the same order, the values of `CC(C)(Oc1ccc(C(=O)c2ccc(Cl)cc2)cc1)C(=O)NS(=O)(=O)c1ccccc1` are 7.65 µM and 0.08.
In the case of `CCCC(Sc1nc2cc(Cl)ccc2s1)C(=O)NS(=O)(=O)c1ccc(NC(C)=O)cc1` (stereo not given), in experiment [1], the 50% inhibitory concentration (IC50) is 108 µM. Besides, the inhibition entry in experiment [2] is “Active”. Further, the fold change (FC) in experiment [3] was 0.2. The outcome in experiment [4] was inactive.
For the compound `CC(C)(Oc1ccc(Cl)cc1)C(=O)NS(=O)(=O)c1ccccc1`, the IC50 in experiment [1] came out at 0.65 µM. Besides, in experiment [3], the fold change (FC) was 0.47.
The corresponding values for `Cc1ccc(C)c(OCCCC(C)(C)C(=O)NS(=O)(=O)c2ccccc2)c1` are 8.8 µM and 0.05.
As for `CCCC(Sc1nc2cc(Cl)ccc2s1)C(=O)NS(=O)(=O)c1ccc(OC)cc1` (stereo not given), the outcome in experiment [6] and in experiment [4] was inactive. For the same compound, the half-maximal inhibitory concentration (IC50) in experiment [1] came to 0.68 µM. Further, the inhibition entry in experiment [2] and in experiment [7] was “Active” in each case. Further, in experiment [3], the fold change (FC) is below 0.01.
